Source: PMC8152814, “The modulatory role of sulfated and non-sulfated small molecule heparan sulfate-glycomimetics in endothelial dysfunction: absolute structural clarification, molecular docking and simulated dynamics, SAR analyses and ADMET studies” (RSC Medicinal Chemistry, 2021)

Experiments:
Assay type in all cases: cell-based, human
Details in all cases: averaged % of increase (+) or decrease (−) compared to control (FFA induced oxidatively stressed endothelial cells), n = 3
nitric oxide (NO) = test: NO release assay (DAF-2) in FFA-stressed cells
Description: (§1) The assays focused on the production of nitric oxide (NO) and the upregulation of nitric oxide synthase (eNOS), the production of reactive oxygen species (ROS) and the activity of nicotinamide adenine dinucleotide phosphate (NADPH) oxidase (Table 2). From the hypothesised model of heparan sulfate-glycomimetic activity,[17] the glycomimetics are proposed to attenuate the binding of HGF to the cMET receptor. This disruption to MET-receptor activation is proposed to modulate intracellular phosphorylation leading to an upregulation of eNOS and increased output of extracellular NO. […] Overall, the cross examination of NO output and reduction of ROS was used to determine the therapeutic action of the triaged glycomimetics α-4, R-10, S-10 and β-5, as well as 3 non-sulfated intermediates α-2, α-3 and β-3, on free fatty acid (FFA) induced, oxidatively stressed endothelial cell cultures (Table 2).
(§2) Biological assay and AMDET experimental details […]
(§3) Preparation of FFA-albumin complexes and cell treatments
(§4) To generate the in vitro model of oxidative stress, sodium palmitate was bound to bovine serum albumin (BSA) as outlined by Chavez and Summers,S2 with modifications. Sodium palmitate (FFA) was dissolved in EtOH at 60 °C and diluted 1:100 in M199 media supplemented with 2% fatty acid-free bovine serum albumin (BSA) and incubated for 1 h at 37 °C. HepG2 cells were treated with 1 μmol/L of the synthesized HS-glycomimetics in the presence of palmitate (100 μmol/L) for 3 h or pre-treated with glycomimetics for 12 h followed by 3 h palmitate (100 μmol/L). Control cells were incubated in serum free M199 containing 2% (wt/vol) fatty acid-free BSA.
NO release assay and Quantification of ROS production
NO release was determined using diaminofluorescein-2 (DAF-2).S3 The cells were washed with PBS and incubated with L-arginine (100 μmol/L in PBS) for 5 min at 37 °C before incubation with DAF-2 (0.1 μmol/L) for 2 min, followed by the calcium ionophore calimycin (A23187, 1 μmol L) for 30 min. L-NAME (100 μmol/L), a nitric oxide inhibitor (NOS), was also added 20 min before the addition of L-arginine in some experiments to determine the involvement of NOS. DAF-2 fluorescence (arbitrary units, AU) was quantified using a microplate reader (BioTek) with excitation and emission wavelengths of 485 nm and 540 nm, respectively. The auto-fluorescence was subtracted from each value. […]
(§5) H2DCFDA, Sigma) for 30 min at 37 °C, and the level of fluorescence was determined (excitation 490 nm; emission 540 nm) using a microplate reader (BioTek).
(§6) The level of NADPH-enhanced superoxide anions (O2•−) in HepG2 homogenates was determined by lucigenin-enhanced chemiluminescence.S4 Following the various treatment conditions, cells were homogenized in a buffer (20 mmol/L H2KPO4 and 1 mmol/L EDTA supplemented with aprotinin, leuprotinin, pepstatin and PMSF). The total protein quantified using the Bicinchoninic acid (BCA) assay (Pierce Biotechnology). To 50 μg of total protein, NADPH (100 μmol/L) was added in a total volume of 500 μL, with lucigenin (5 μmol/L) and was injected automatically. Activity was determined by measuring luminescence over 200 s in a scintillation counter (Lumat LB 9507, Berthold, Germany). Basal values of NADPH oxidase activity were subtracted from the experimental values and expressed as RLU/min/μg protein […]
(§7) In situ quantification of ROS species
(§8) Superoxide dismutase (SOD) and catalase (CAT) activity assays, and in situ detection of vascular ROS content. The activity of the enzymes, SOD and CAT, was determined in cell homogenates using assay kits according to the manufacturer's instructions (Cayman; Cat No 706002 and 707002 respectively). A unit of SOD was defined as the amount of enzyme […]
(§9) Similarly, a unit of CAT was […]
(§10) defined as the amount required to form 1.0 nmol of formaldehyde per min at 25 °C.S5

eNOS = eNOS phosphorylation (Western blot) in FFA-stressed cells
Description: as §1, §2, §3
as §4, with “BSA. […]” for “BSA.”
HepG2 wells were lysed in RIPA buffer containing proteinase inhibitors and the total protein was quantified using BCA protein assay kit (Pierce Biotechnology). Proteins (30 μg/well) were denatured and separated by sodium dodecyl sulfate (SDS)-polyacrylamide gel electrophoresis and transferred to polyvinylidene difluoride (PVDF) membranes. Blots were blocked for 1 h in 5% semi-skimmed milk/Tris-Buffered Saline Tween-20 (TBS-T), probed with primary rabbit anti-phospho-protein kinase B (Akt), rabbit anti-Akt (Santa Cruz Biotechnology), rabbit polyclonal anti-phospho-eNOS (Cell Signaling) overnight at 4 °C followed by washing and incubation with the corresponding horse radish peroxidase-labelled secondary antibody for 1 h at room temperature. After washing with TBS-T, membranes were incubated with ECL reagent and visualized (Amersham Pharmacia Biotech). Densitometry analysis using ImageJ© (version 1.32j, NIH) was used to quantify the protein signal.S7 […]
(typically 0.01 M phosphate buffered saline pH 7.4) so that the final DMSO concentration is 1 % and the final test compound concentrations are 1, 3, 10, 30 and 100 µM. The experiment is performed at 37 °C and each concentration is incubated in 7 replicate wells. The plates are incubated for 2 h at 37 °C before the absorbance is measured at 620nm. Nicardipine (pH dependent) and pyrene (pH independent) are included as control compounds. The solubility is estimated from the concentration of test compound that produces an increase in absorbance above vehicle control (1% DMSO in buffer).

[1] = tested on: reactive oxygen species (ROS); test: ROS production in FFA-stressed cells
Description: as §1, §2, §3, §4
NO release assay and Quantification of ROS production […]
The auto-fluorescence was subtracted from each value. Cells were incubated with 10 μmol/L of the fluorescent probe: 2′-7′-dichlorodihydrofluorescein diacetate (CM-H2DCFDA, Sigma) for 30 min at 37 °C, and the level of fluorescence was determined (excitation 490 nm; emission 540 nm) using a microplate reader (BioTek).
as §6, §7, §8, §9
defined as the amount required to form 1.0 nmol of formaldehyde per min at 25 °C.S5 […]
HepG2 cells were incubated in serum-free DMEM containing 2% fatty acid-free BSA (control) or palmitate conjugated BSA (100 μmol/L) in the presence of HS-glycomimetics (1 or 10 μmol/L) for 24 h. The cells were incubated for 30 min in Hepes-buffered solution containing 10 μmol/L dihydroethidium (DHE), which intercalates with DNA in the presence of ROS and is detectable by fluorescence. Cells were counterstained with the nuclear stain DAPI at 0.3 μmol/L. In the following 24 h, the cell cultures were examined using a fluorescence microscope (Leica DMIRB). Sections were photographed and fluorescence was quantified using ImageJ. […]

NADPH oxidase = NADPH oxidase activity (lucigenin chemiluminescence) in cell homogenates; design: concentration or dose not given beside the values
Description: as §1, §2, §3
as §4, with “BSA. […]” for “BSA.”
as §5, §6, §7, §8, §9, §10

**Q.** Which NO production (nitric oxide (NO)) does the source give for `COC(=O)c1cc(OC[C@H](O)CO)ccc1OC[C@@H](O)CO` (mixture of isomers) [α-2, methyl 5-((R)-2,3-dihydroxypropoxy)-2-((S)-2,3-dihydroxypropoxy)benzoate] here?
**A.** The NO production was “+46%”.

**Q.** What about the eNOS phosphorylation (eNOS) of the same molecule?
**A.** The eNOS phosphorylation was “+286%”.

**Q.** And the ROS production [1]?
**A.** The ROS production was −36%.

**Q.** What about the NADPH oxidase activity (NADPH oxidase) of the same molecule?
**A.** The NADPH oxidase activity was −26%.

**Q.** How did the NO production (nitric oxide (NO)) turn out when `O=C(O)c1cc(OCC(O)CO)ccc1OCC(O)CO` (mixture of isomers) [α-3, sodium 5-((R)-2,3-dihydroxypropoxy)-2-((±)-2,3-dihydroxypropoxy)benzoate] was run?
**A.** Its NO production is “+41%”.

**Q.** And the eNOS phosphorylation (eNOS)?
**A.** Its eNOS phosphorylation is “+312%”.

**Q.** And the ROS production [1]?
**A.** Its ROS production is −23%.

**Q.** What about the NADPH oxidase activity (NADPH oxidase) of the same molecule?
**A.** The NADPH oxidase activity was −21%.

**Q.** What does the source list for `O=C(O)c1cc(OCC(O)CO)ccc1OCC(O)CO` (mixture of isomers) [β-3, sodium 5-((S)-2,3-dihydroxypropoxy)-2-((±)-2,3-dihydroxypropoxy)benzoate]?
**A.** NO production (nitric oxide (NO)): +52%; eNOS phosphorylation (eNOS): +294%; ROS production [1]: −19%; NADPH oxidase activity (NADPH oxidase): −27%
